Source: patent US5202355A, “Method of inhibiting aldose reductase in diabetic hosts using phenol derivatives” (Takasago Institute for Interdisciplinary Science Inc., priority 1991, dated 1993)
Like-named read-outs stand apart in the source and are kept apart here.

Legend:
[1] = system: motor nerve conduction velocity (MNCV); details: short and long-term streptozotocin induced diabetes in rats; cited from earlier work
[2] = system: peripheral nerve deterioration; details: diabetic patients suffering from peripheral nerve deterioration; cited from earlier work
[3] = system: galactosemic cataract formation; details: experimental rats; cited from earlier work
aldose reductase = target: T1, aldose reductase (Bos taurus, UniProt P16116); assay: Aldose reductase inhibition (percent inhibition of enzyme activity); format: biochemical, calf
T1 construct: The enzyme was isolated from the homogenized preparation by successive chromatography; from tissue; host or cells: calf eye lens
Procedure: The following phenols were tested for their ability to inhibit aldose reductase enzyme activity.
The assay was conducted essentially according to the procedure of S. Hayman, et al., as described in the Journal of Biological Chemistry, 240, 877 (1965).
The preparation of aldose reductase was conducted according to the procedure of K. Inagaki et al., ARchives of Biochemistry and Biophysics, 216, 337 (1982). Briefly, lenses were removed from calf eyes and homogenized. The enzyme was isolated from the homogenized preparation by successive chromatography on a DEAE-sephacel column (Pharmacia LKB Biotechnology, Piscataway, N.J.), an affinity column (Matrex gel red A; Amicon Co., Danvers, Mass.), and a Sephadex G-75 column (Pharmacia LKB Biotechnology, Piscataway, N.J.).
A reaction mixture of 0.1M sodium phosphate buffer (pH 6.2), 0.4M ammonium sulfate, 10 mm glyceraldehyde, 0.16 mm NADPH, and 10 ml propylene glycol solution containing the purified enzyme was prepared. The test compound was incubated with the enzyme in the reaction mixture.
Aldose reductase activity was assayed spectrophotometrically by determining the decrease in the NADPH concentration at 340 nm in a Beckman DU-64 spectrophotometer (Beckman, Palo Alto, Calif.).
The percent inhibition of each compound was calculated by comparing the reaction rate of the solution containing substrate and the compound at a given concentration with that of the control solution containing only substrate.

[4] = target: calf lens aldose reductase; details: cited from earlier work
[5] = 10^-6 M (× 3.8), read-out: Percent Inhibition (%)
[6] = 10^-6 M (× 7.5), read-out: Percent Inhibition (%)
[7] = 10^-6 M (× 1.9), read-out: Percent Inhibition (%)

SMILES | inhibition (aldose reductase; [5]) | inhibition (aldose reductase; [6]) | inhibition (aldose reductase; [7]) | further results
O=C(O)CN1C(=O)c2cccc3cccc(c23)C1=O [Alrestatin, 1,3-dioxo-1H-benz (de) isoquinoline-2(3H)-acetic acid] |  |  |  | motor nerve conduction velocity (MNCV) [1]: improve motor nerve conduction velocity (MNCV); improvement in diabetic patients [2]: no improvement was observed; galactosemic cataract formation [3]: successfully prevent galactosemic cataract formation; sugar polyol accumulations [3]: blocking the sugar polyol accumulations
CCCCCCCCCCCCCCCc1cccc(O)c1C(=O)O [Compound 1, 6-Pentadecylsalicylic Acid] | 27% | 40% |  | 
CCCCCC/C=C\CCCCCCCc1cccc(O)c1C(=O)O [Compound 2, 6-[8(z)-pentadecenyl]salicylic acid] | 42% | 91% | 9% | 
CCC/C=C\C/C=C\CCCCCCCc1cccc(O)c1C(=O)O [Compound 3, 6-[8(z),11(z)-pentadecadienyl]salicylic acid] | 18% | 91% | 1% | 
C=CC/C=C\C/C=C\CCCCCCCc1cccc(O)c1C(=O)O [Compound 4, 6-[8(z),11(z),14-pentadecatrienyl]salicylic acid] | 60% | 77% | 47% | 
CCC/C=C\C/C=C\CCCCCCCc1cc(O)c(C)c(O)c1 [Compound 11, 2-methyl-5-[8(z),11(z)-pentadecadienyl]resorcinol] | 22% | 43% |  | 
C=CC/C=C\C/C=C\CCCCCCCc1cc(O)c(C)c(O)c1 [Compound 12, 2-methyl-5-[8(z),11(z),14-pentadecatrienyl]resorcinol] | 28% | 53% |  | 
C=CC/C=C\C/C=C\CCCCCCCc1cc(O)cc(O)c1 [Compound 16, 5-[8(z),11(z),14-pentadecatrienyl]resorcinol] |  |  |  | inhibition (aldose reductase; read-out: Percent Inhibition (%), 10^-6 M (× 1.9)): 12%; inhibition (aldose reductase; read-out: Percent Inhibition (%), 10^-6 M (× 3.8)): 16%; inhibition (aldose reductase; read-out: Percent Inhibition (%), 10^-6 M (× 7.5)): 85%
O=C1NC(=O)[C@@]2(CCOc3ccc(F)cc32)N1 [sorbinil, d-6-fluoro-spiro [chroman-4,4'-imidazolidine]-2',5'-dione] |  |  |  | motor nerve conduction velocity (MNCV) [1]: improve motor nerve conduction velocity (MNCV); IC50 ([4]; calf lens aldose reductase, read-out: IC50 concentration): ~500 nM; aldose reductase inhibitor potency (in words) [4]: one of the most potent inhibitors heretofore investigated; improvement in diabetic patients [2]: no beneficial effect was observed
